Test results: patent US9072707B2, “Use of C-terminal domain of IGFBP-5 comprising heparin-binding domain as an angiogenesis inhibitor” (RESEARCH & BUSINESS FOUNDATION SUNGKYUNKWAN UNIVERSITY, priority 2012, dated 2015)

B1: C-terminal domain: domain consisting of amino acids 169-252 of IGFBP-5 (SEQ ID NO: 1), stably expressed in 2774 cells (C/2774) (protein)
chain: QGPCRRHMEASLQELKASPRMVPRAVYLPNCDRKGFYKRKQCKPSRGRKRGICWCVDKYGMKLPGMEYVDGDFQCHTFDSSNVE

Columns and labels:
[1] = tested on: HUVEC; test: Migration (scratch) assay; assay type: cell-based, human; conditions: 60 μg/ml peptide, 36 h pretreatment, overnight, FIG. 6b
Procedure: In order to examine the influence of each domain peptide of IGFBP-5 on the migration of HUVEC cells, HUVEC cells were seeded onto a 12-well plate at a density of 1×10^5 cells/well, and then treated with 60 μg/ml of each of the peptides for 36 hours. Specifically, the cells were treated with each of the peptides for 7 hours, and then treated overnight with a fresh peptide.
The plate was scratched with a 200-μl micropipette tip, and treated overnight with 60 μg/ml of a fresh peptide, after which the migration of the cells was observed. For this purpose, the cells were photographed under a microscope at 0 hour and the overnight time point. In addition, for a control group, cells were treated with PBS.

[2] = tested on: VEGF; test: RT-PCR analysis of VEGF gene expression in 2774 ovarian cancer cell line; assay type: cell-based
Procedure: (§1) A plasmid (pSecTaq2/Hygro A, Invitrogen) (2 μg/dish (100 mm dish)) that expresses the C-terminal domain (SEQ ID NO: 1), L-domain (SEQ ID NO: 2) and N-terminal domain (SEQ ID NO: 3) of IGFBP-5 was transfected into the 2774 ovarian cancer cell line using Lipofectamine 2000 (Invitrogen). The transfection was performed according to the method provided by Invitrogen.
(§2) At 24 hours after transfection, viable colonies were collected in DMEM (+10% FBS+penicillin and hygromycin) containing hygromycin (500 μg/ml), and then positive colonies were selected by a Western blot method using Myc antibody.
(§3) The […] cell line was treated overnight with various concentrations or 60 μg/ml of the peptides synthesized in Example 4, after which the cell line was additionally treated with fresh peptides for 7 hours. The cell line was treated for a total of 24 hours. Then, the cells were lysed with Trizol (Invitrogen), and RNA was isolated from the cells. cDNA was synthesized from the isolated […] using oligo dT and superscriptase III (Invitrogen), and then subjected to RT-PCR.
(§4) However, the PCR reaction using TNF-a primers was performed for 35 cycles at an annealing temperature of 57° C.

[3] = tested on: HUVEC; test: Tube formation assay on Matrigel; assay type: cell-based, human; conditions: 60 μg/ml peptide, 24 h pretreatment, 6 h on Matrigel; FIG. 6a
Procedure: In order to examine the influence of each domain peptide of IGFBP-5 on the tube formation of HUVEC cells, HUVEC cells were plated onto a 6-well plate at a density of 1×10^5 cells/well, and then treated with 60 μg/ml of each of the peptides for 24 hours.
Before a tube formation assay, growth factor-reduced Matrigel (BD Bioscience) diluted to 1:2 with PBS was added to a 24-well plate in an amount of 300 μl/well, and then solidified at 37° C. for 1 hour. The HUVEC cells treated with each of the peptides for 24 hours were trypsinized, suspended in 300 μl of EGM medium (diluted to 1:3 with EBM medium) and treated with 60 μg/ml of a fresh peptide, and then the cells were incubated on the prepared Matrigel for 6 hours.

[4] = tested on: TNF-α; test: RT-PCR analysis of TNF-alpha gene expression in 2774 ovarian cancer cell line; assay type: cell-based
Procedure: as §1, §2, §3, §4

[5] = tested on: IL-6; test: RT-PCR analysis of IL-6 gene expression in 2774 ovarian cancer cell line; assay type: cell-based
Procedure: as §1, §2, §3, §4

[6] = tested on: 2774-GFP cell line; test: Ovarian cancer animal model, intraperitoneal 2774-GFP cells; assay type: in vivo, nude mouse; conditions: 30 mg/kg intraperitoneally 8 times at intervals of 2-3 days, FIG. 7
Procedure: Each of 5-week-old nude mouse was intraperitoneally injected with 5×10^6 2774 cells that express GFP.
In this experiment, 8 mice were injected with the BP5-C peptide, and for a control group, 7 mice were injected with PBS.

[7] = tested on: 2774 ovarian cancer cell line; test: Subcutaneous tumor growth of 2774 cell lines expressing IGFBP-5 truncation mutants; assay type: in vivo, nude mouse; conditions: nude mice injected subcutaneously with 2774 cells expressing the domain, compared to Vec/2774; FIGS. 2a, 2b
Procedure: A 5-week-old nude mouse subcutaneously injected with 1×10^6 cells that express the truncation mutant of IGFBP-5, and then the tumor volume of the mice was measured at intervals of 3-4 days. In this experiment, two mice were used for each of the cell lines, and each of the cell lines was injected into two points of each mouse. This experiment was repeated three times.

[8] = 2774 cells treated with 60 μg/ml of each peptide, FIG. 5A
[9] = 2774 cells treated with peptide at 30, 60 and 100 μg/ml, FIG. 3A
[10] = 2774 cell line stably expressing the domain, FIG. 1B

Molecule | migration of HUVEC [1] | expression of VEGF gene [2, 8] | tube formation of HUVEC [3] | expression of TNF-α gene [4, 8] | expression of IL-6 gene [5, 8] | tumor volume of collected tumors ([6]; compared to animals injected with PBS) | tumor growth ([6]; compared to control group (PBS)) | expression of VEGF gene [2, 9] | expression of TNF-α gene [4, 9] | expression of IL-6 gene [5, 9] | growth of cancer (tumor volume) [7] | expression of VEGF gene [2, 10] | expression of TNF-a gene [4, 10] | expression of IL-6 gene [5, 10]
BP2-C: C-terminal domain peptide of IGFBP-2 including IGF-1-binding domain, amino acids 228-245, KHGLYNLKQCKMSLNGQR (SEQ ID NO: 7) [reference compound] | did not inhibit | no effect | no influence | no effect | no effect |  |  |  |  |  |  |  |  | 
BP2-HBD: heparin-binding domain derived from IGFBP-2, amino acids 171-188, KHHLGLEEPKKLRPPPAR (SEQ ID NO: 6) [reference compound] | did not inhibit | no effect | no influence | no effect | no effect |  |  |  |  |  |  |  |  | 
BP5-C: amino acids 201-218 of IGFBP-5, RKGFYKRKQCKPSRGRKR (SEQ ID NO: 4) | inhibited | inhibited | inhibited | inhibited | inhibited | significantly reduced | significantly inhibited | inhibited | inhibited | inhibited |  |  |  | 
BP5-mut: IGFBP-5 201-218 with G203A and Q209A mutations, RKAFYKRKACKPSRGRKR (SEQ ID NO: 5) | inhibited | inhibited | inhibited | inhibited | inhibited |  |  |  |  |  |  |  |  | 
B1 |  |  |  |  |  |  |  |  |  |  | significantly inhibited | significantly inhibited | significantly inhibited | significantly inhibited
